Test [1] deals with T1, human TYK2 kinase domain (JH1) (Homo sapiens, UniProt P29597).
T1 construct: recombinantly generated catalytic kinase (also known as JH1) domain of human JAK1, JAK2, JAK3 and TYK2
T1 sequence (P29597 897-1176 limits assumed): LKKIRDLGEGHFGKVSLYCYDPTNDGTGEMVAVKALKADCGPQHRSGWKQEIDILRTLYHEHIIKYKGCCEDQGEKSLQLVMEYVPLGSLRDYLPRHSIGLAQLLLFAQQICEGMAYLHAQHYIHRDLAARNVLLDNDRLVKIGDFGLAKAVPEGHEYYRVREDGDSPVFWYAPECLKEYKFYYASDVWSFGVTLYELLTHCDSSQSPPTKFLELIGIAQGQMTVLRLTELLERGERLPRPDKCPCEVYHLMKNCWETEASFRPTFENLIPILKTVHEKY
The test can be described thus: JH1 biochemical assay for TYK2 (ADP-Glo kinase assay, recombinant JH1 catalytic domain, JAK3-974 peptide, 10 μM ATP). The note with it: JH1 kinase domain, ADP-Glo. The gist of the method:
(§1)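 Reactions ran 100 min with 50 μM substrate peptide (JAK3-342 for JAK1 at 4 nM enzyme; JAK3-974 for JAK2 0.2 nM, JAK3 0.3 nM, TYK2 2 nM), and ADP formed was read by ADP-Glo luminescence. Eleven-point 3-fold series from 10 or 1 μM; IC50 fitted by 4-parameter logistic model.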

The target in test [2] is T2, human JAK1 kinase domain (JH1) (Homo sapiens, UniProt P23458).
T2 construct: recombinantly generated catalytic kinase (also known as JH1) domain of human JAK1, JAK2, JAK3 and TYK2
The test is described as follows: JH1 biochemical assay for JAK1 (ADP-Glo kinase assay, recombinant JH1 catalytic domain, JAK3-342 peptide, 35 μM ATP). The note with it: JH1 kinase domain, ADP-Glo. The gist of the method:
as §1

The target in test [3] is T3, human JAK2 kinase domain (JH1) (Homo sapiens, UniProt O60674).
T3 construct: recombinantly generated catalytic kinase (also known as JH1) domain of human JAK1, JAK2, JAK3 and TYK2
The test can be described thus: JH1 biochemical assay for JAK2 (ADP-Glo kinase assay, recombinant JH1 catalytic domain, JAK3-974 peptide, 15 μM ATP). The note with it: JH1 kinase domain, ADP-Glo. The gist of the method:
as §1

Test [4] addresses T4, human JAK3 kinase domain (JH1) (Homo sapiens, UniProt P52333).
T4 construct: recombinantly generated catalytic kinase (also known as JH1) domain of human JAK1, JAK2, JAK3 and TYK2
The test can be described thus: JH1 biochemical assay for JAK3 (ADP-Glo kinase assay, recombinant JH1 catalytic domain, JAK3-974 peptide, 4 μM ATP). The note with it: JH1 kinase domain, ADP-Glo. The gist of the method:
as §1

Test [5] concerns the target Tyk2 kinase activity on STAT4 in NK92 cells (Homo sapiens, UniProt P29597). The test can be described thus: pSTAT4 cell assay (MSD; NK92 cells, 30 ng/mL IL2 stimulation). It is filed as cell-based. The note with it: 30 ng/mL IL2, 15 minutes. Here is the method:
The inhibitory potency of compounds of the disclosure against the Tyk2 kinase activity on STAT4 was evaluated using an MSD-platform plate-based assay format. NK92 cells natively expressing STAT4 and Tyk2 were serum-starved to reduce background phosphorylation levels, then cells were treated compounds for 1 hr with a 10-point four-fold dilution series starting at 10 μM. Cells were then stimulated with 30 ng/mL IL2 for 15 minutes. Cells were lysed and […] levels were quantitated using an MSD plate-based assay with anti-STAT4 antibodies. The data were normalized and the percent activity versus log concentration of compound were fitted with a 4-parameter logistic model to generate to generate IC50 curves.

In test [6] the target is JAK2 kinase activity on STAT5 in TF1 cells (Homo sapiens, UniProt O60674). The test is described as follows: pSTAT5 cell assay (MSD; TF1 cells, 30 ng/mL IL-3 stimulation). It is filed as cell-based. The note with it: 30 ng/mL IL-3, 15 minutes. How it is done:
The inhibitory potency of compounds of the disclosure against the JAK2 kinase activity on STAT5 was evaluated using an MSD-platform plate-based assay format. TF1 cells natively expressing STAT5 and JAK2 were serum-starved to reduce background phosphorylation levels, then cells were treated with compounds of disclosure for 1 hour with a 10-point four-fold dilution series starting at 10 μM. Cells were then stimulated with 30 ng/mL IL-3 for 15 minutes. Cells were then lysed and pSTAT5 levels were quantitated using an MSD plate-based assay with anti-STAT5 antibodies. The data were normalized and the percent activity versus log concentration of compound was fitted with a 4-parameter logistic model to generate a curve and an IC50 value.

Test [7] has as its target JAK1 kinase activity on STAT3 in TF1 cells (Homo sapiens, UniProt P23458). The test is described as follows: pSTAT3 cell assay (MSD; TF1 cells, 30 ng/mL IL-6 stimulation). It is filed as cell-based. The note with it: 30 ng/mL IL-6, 15 minutes. Here is the method: The inhibitory potency of compounds of the disclosure against the JAK1 kinase activity on STAT3 was evaluated using an MSD-platform plate-based assay format. TF1 cells natively expressing STAT3 and JAK1 were serum-starved to reduce background phosphorylation levels, then cells were treated with compounds of the disclosure for 1 hour with a 10-point four-fold dilution series starting at 10 μM. Cells were then stimulated with 30 ng/mL interleukin 6 (IL-6) for 15 minutes. Cells were lysed and pSTAT3 levels were quantitated using an MSD plate-based assay with anti-STAT3 antibodies. The data were normalized and the percent activity versus log concentration of compound was fitted with a 4-parameter logistic model to generate IC50 curves.

T3 sequence (O60674 849-1124 limits assumed): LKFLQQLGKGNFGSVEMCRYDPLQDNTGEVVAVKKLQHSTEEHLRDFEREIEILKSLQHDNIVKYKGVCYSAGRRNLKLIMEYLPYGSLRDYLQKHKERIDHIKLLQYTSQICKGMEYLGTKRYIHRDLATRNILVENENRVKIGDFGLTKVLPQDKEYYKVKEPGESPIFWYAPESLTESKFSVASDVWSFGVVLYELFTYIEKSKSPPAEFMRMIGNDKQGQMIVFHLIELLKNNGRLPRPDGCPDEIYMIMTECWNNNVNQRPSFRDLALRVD
T2 sequence (P23458 875-1153 limits assumed): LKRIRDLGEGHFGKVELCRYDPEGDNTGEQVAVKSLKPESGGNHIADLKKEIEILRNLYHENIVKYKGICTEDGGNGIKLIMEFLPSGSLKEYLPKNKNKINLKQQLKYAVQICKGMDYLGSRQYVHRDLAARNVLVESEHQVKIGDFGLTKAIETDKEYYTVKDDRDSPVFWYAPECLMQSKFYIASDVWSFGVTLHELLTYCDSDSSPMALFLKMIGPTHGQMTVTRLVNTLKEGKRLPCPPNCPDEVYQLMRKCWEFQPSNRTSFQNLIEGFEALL
T4 sequence (P52333 822-1111 limits assumed): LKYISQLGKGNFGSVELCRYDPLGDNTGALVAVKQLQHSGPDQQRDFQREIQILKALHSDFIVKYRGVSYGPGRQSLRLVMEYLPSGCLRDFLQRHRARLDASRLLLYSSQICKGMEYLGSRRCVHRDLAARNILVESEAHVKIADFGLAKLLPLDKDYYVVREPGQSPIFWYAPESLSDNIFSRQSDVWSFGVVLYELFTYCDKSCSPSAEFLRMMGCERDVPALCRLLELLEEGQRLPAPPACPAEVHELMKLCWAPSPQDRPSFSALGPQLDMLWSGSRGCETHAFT
Tyk2 kinase activity on STAT4 in NK92 cells, sequence (P29597 whole entry): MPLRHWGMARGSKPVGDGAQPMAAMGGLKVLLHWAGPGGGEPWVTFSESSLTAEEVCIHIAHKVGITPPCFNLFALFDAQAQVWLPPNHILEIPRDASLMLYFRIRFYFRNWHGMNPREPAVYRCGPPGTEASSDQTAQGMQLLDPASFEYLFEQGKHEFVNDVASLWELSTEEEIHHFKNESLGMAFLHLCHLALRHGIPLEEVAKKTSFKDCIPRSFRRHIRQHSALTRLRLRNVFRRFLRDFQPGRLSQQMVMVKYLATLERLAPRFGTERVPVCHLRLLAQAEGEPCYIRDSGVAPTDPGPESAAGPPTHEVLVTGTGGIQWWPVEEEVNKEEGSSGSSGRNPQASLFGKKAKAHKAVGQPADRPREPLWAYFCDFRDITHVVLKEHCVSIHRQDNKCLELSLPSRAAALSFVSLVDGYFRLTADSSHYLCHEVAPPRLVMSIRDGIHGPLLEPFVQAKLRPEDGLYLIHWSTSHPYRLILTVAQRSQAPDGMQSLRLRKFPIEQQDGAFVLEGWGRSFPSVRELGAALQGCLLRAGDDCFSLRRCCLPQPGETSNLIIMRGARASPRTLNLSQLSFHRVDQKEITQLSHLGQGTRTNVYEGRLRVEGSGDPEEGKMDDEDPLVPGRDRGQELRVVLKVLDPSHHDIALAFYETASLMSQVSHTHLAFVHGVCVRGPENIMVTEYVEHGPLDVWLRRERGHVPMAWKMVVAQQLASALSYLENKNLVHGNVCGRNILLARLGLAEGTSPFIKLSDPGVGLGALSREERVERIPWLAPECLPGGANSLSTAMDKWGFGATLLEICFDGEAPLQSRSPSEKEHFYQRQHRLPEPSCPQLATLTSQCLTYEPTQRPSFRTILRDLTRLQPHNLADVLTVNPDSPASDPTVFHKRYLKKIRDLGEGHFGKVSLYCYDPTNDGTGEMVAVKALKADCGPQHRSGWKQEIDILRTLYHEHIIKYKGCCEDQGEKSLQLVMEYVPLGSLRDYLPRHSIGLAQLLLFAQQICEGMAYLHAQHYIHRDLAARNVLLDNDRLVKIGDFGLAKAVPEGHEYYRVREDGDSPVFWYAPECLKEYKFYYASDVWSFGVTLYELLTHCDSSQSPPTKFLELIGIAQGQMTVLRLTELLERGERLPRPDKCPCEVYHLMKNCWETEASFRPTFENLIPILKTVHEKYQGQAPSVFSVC
JAK2 kinase activity on STAT5 in TF1 cells, sequence (O60674 whole entry): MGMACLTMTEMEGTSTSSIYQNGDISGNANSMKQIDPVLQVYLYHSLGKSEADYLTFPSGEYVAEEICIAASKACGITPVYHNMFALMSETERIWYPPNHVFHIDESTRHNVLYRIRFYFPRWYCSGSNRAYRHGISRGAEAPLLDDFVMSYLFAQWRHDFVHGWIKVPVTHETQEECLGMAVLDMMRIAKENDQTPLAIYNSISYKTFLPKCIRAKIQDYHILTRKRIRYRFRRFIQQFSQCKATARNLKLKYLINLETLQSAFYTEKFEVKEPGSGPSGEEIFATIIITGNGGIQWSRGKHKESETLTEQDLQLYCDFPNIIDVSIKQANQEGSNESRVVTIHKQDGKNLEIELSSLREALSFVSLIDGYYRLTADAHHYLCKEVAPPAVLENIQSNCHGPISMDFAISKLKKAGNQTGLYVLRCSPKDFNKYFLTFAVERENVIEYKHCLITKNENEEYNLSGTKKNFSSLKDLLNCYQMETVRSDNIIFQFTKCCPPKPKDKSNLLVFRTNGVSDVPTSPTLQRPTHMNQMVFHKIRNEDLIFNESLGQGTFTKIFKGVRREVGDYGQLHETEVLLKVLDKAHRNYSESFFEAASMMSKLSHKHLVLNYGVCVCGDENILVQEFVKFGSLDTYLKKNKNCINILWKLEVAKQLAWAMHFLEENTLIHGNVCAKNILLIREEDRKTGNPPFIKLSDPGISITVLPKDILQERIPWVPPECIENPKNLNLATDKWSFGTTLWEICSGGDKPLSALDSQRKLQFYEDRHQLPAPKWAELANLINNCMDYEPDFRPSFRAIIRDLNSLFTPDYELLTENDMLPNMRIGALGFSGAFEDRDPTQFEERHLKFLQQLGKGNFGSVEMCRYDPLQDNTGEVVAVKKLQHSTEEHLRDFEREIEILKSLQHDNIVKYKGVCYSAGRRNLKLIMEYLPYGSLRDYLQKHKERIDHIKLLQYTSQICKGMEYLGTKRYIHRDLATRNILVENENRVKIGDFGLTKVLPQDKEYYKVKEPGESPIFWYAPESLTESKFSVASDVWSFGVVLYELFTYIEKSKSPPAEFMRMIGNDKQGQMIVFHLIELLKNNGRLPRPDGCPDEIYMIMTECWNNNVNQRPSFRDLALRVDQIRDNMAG
JAK1 kinase activity on STAT3 in TF1 cells, sequence (P23458 whole entry): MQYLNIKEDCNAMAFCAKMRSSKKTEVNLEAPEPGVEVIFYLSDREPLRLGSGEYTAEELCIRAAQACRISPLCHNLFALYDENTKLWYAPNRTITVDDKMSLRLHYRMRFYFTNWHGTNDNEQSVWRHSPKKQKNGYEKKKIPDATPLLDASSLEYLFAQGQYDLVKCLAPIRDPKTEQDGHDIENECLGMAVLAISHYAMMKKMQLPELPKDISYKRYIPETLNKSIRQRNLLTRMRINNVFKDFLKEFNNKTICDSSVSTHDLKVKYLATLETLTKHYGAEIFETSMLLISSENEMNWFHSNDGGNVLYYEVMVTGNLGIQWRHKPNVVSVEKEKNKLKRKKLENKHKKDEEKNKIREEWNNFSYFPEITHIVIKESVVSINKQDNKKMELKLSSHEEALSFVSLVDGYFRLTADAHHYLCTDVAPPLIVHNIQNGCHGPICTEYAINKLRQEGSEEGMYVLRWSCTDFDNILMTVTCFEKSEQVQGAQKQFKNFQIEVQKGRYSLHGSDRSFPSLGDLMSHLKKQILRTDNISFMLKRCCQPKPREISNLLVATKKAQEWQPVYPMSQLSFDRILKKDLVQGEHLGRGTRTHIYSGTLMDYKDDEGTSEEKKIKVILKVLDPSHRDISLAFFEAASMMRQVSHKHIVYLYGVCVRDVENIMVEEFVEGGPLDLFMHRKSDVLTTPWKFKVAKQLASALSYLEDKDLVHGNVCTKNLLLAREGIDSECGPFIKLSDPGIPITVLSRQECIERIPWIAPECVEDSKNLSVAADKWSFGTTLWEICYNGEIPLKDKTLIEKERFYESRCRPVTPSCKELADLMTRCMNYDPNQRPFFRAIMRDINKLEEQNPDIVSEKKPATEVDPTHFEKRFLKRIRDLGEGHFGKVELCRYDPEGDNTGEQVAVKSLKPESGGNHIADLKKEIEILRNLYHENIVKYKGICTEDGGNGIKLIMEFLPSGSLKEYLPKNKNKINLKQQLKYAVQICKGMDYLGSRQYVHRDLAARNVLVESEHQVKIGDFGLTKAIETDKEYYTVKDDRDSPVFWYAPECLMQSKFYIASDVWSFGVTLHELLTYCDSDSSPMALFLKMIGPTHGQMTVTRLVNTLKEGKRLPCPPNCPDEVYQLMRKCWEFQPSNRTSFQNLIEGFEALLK

As to `Cn1cc(-c2cc3c(N4CC[C@@](C#N)(C5CC5)C4=O)ccnc3[nH]2)cn1` [Example 4, (S)-3-cyclopropyl-1-(2-(1-methyl-1H-pyrazol-4-yl)-1H-pyrrolo[2,3-b]pyridin-4-yl)-2-oxopyrrolidine-3-carbonitrile], the half-inhibitory concentration (IC50) was less than 5 nM in test [1]; less than 100 nM in test [2]; less than 100 nM in test [3]; less than 100 nM in test [4]; 20 to 50 nM in test [5]; 100 to 1000 nM in test [6]. In test [7], the concentration for half-maximal inhibition (IC50) fell in the range of 100 to 1000 nM.
For the compound `COc1cc(-c2cc3c(N4CC[C@](C#N)(C5CC5)C4=O)ccnc3[nH]2)ccn1` [Example 5, (R)-3-cyclopropyl-1-(2-(2-methoxypyridin-4-yl)-1H-pyrrolo[2,3-b]pyridin-4-yl)-2-oxopyrrolidine-3-carbonitrile], the concentration for half-maximal inhibition (IC50) is more than 100 nM in test [1]; 1000 to 5000 nM in test [2]; 100 to 1000 nM in test [3]; 1000 to 5000 nM in test [4]; more than 100 nM in test [5]; more than 10000 nM in test [6]. Moreover, the IC50 in test [7] fell in the range of 5000 to 10000 nM.
Take `C[C@@H]1CN(c2ncnc3[nH]c(-c4cnn(C)c4)cc23)C(=O)[C@]1(C#N)C1CC1` [Example 6, (3R,4S)-3-cyclopropyl-4-methyl-1-(6-(1-methyl-1H-pyrazol-4-yl)-7H-pyrrolo[2,3-d]pyrimidin-4-yl)-2-oxopyrrolidine-3-carbonitrile]: the concentration for half-maximal inhibition (IC50) in test [1] is 50 to 100 nM; in test [2], 1000 to 5000 nM; in test [3], 1000 to 5000 nM; in test [4], 1000 to 5000 nM; in test [5], more than 100 nM; in test [6], more than 10000 nM. Also, in test [7], the half-inhibitory concentration (IC50) was more than 10000 nM.
`COc1cc(-c2cc3c(N4CC[C@@](C#N)(C5CC5)C4=O)ccnn3c2)ccn1` [Example 8, (S)-3-cyclopropyl-1-(6-(2-methoxypyridin-4-yl)pyrrolo[1,2-b]pyridazin-4-yl)-2-oxopyrrolidine-3-carbonitrile]: the IC50 is 5 to 20 nM in test [1]; 100 to 1000 nM in test [2]; 100 to 1000 nM in test [3]; 100 to 1000 nM in test [4]; more than 100 nM in test [5]; 1000 to 5000 nM in test [6]. For the same compound, in test [7], the 50% inhibitory concentration (IC50) was 1000 to 5000 nM.
Regarding `Cn1cc(-c2cc3c(N4CC[C@@](C#N)(C5CC5)C4=O)ccnn3c2)cn1` [Example 9, (S)-3-cyclopropyl-1-(6-(1-methyl-1H-pyrazol-4-yl)pyrrolo[1,2-b]pyridazin-4-yl)-2-oxopyrrolidine-3-carbonitrile], the half-maximal inhibitory concentration (IC50) in test [1] is 5 to 20 nM; in test [2], 100 to 1000 nM; in test [3], 100 to 1000 nM; in test [4] it was 100 to 1000 nM; in test [5] it was more than 100 nM; in test [6], 5000 to 10000 nM. The same compound registered an IC50 in test [7] of 1000 to 5000 nM.
Take `N#C[C@@]1(C2CC2)CCN(c2ccnn3cc(-c4cnn(C(F)F)c4)cc23)C1=O` [Example 10, (S)-3-cyclopropyl-1-(6-(1-(difluoromethyl)-1H-pyrazol-4-yl)pyrrolo[1,2-b]pyridazin-4-yl)-2-oxopyrrolidine-3-carbonitrile]: the IC50 was 5 to 20 nM in test [1]; 100 to 1000 nM in test [2]; 100 to 1000 nM in test [3]; 100 to 1000 nM in test [4]; more than 100 nM in test [5]; more than 10000 nM in test [6]. The same compound yielded an IC50 in test [7] of 1000 to 5000 nM.
As to `Cc1cc(-c2cc3c(N4CC[C@@](C#N)(C5CC5)C4=O)ccnn3c2)on1` [Example 11, (S)-3-cyclopropyl-1-(6-(3-methylisoxazol-5-yl)pyrrolo[1,2-b]pyridazin-4-yl)-2-oxopyrrolidine-3-carbonitrile], the IC50 in test [1] was 20 to 50 nM; in test [2], 1000 to 5000 nM; in test [3], 1000 to 5000 nM; in test [4], 100 to 1000 nM; in test [5], more than 100 nM; in test [6], more than 10000 nM. Besides, in test [7], the IC50 was more than 10000 nM.

Values taken from patent US20260297085A1, “1 H-PYRROLO[2,3-B]PYRIDIN-4-YL]-2-OXOPYRROLIDINE-3-CARBONITRILE DERIVATIVES AS TYROSINE KINASE 2 (TYK2) INHIBITORS FOR THE TREATMENT OF INFLAMMATORY DISEASES” (BIOGEN MA INC., priority 2023, published 2026).
